Converted amounts (≈) assume the structure as drawn.
Experiments:
Assay type in all cases: cell-based
[1] = tested on: Streptococcus pneumoniae ATCC 49169; experiment: MIC by broth microdilution, Streptococcus pneumoniae; details: for MIC: Streptococcus pneumoniae, ATCC49169, final compound (after hydrolysis), 96-well two-fold dilution, 37° C., 24 hours; for antibacterial effect on Streptococcus pneumoniae before versus after hydrolysis: before vs after hydrolysis
Experimental: (§1) The antibacterial activity of the tylosin derivative Ia and the antibacterial activity of the tylosin derivative Ib of the present invention were determined by using the broth microdilution method with tylosin as a positive control. A broth culture medium was added into a 96-well plate, a prepared compound solution was diluted in a trace two-fold decreasing concentration, and then was inoculated with an appropriate amount of bacterial solution. After incubation for 24 hours, the minimum inhibitory concentration of the compound was observed. The culture medium used in the experiment was CAMHB broth and CAMHB+5% defibrillated sheep blood broth. The preserved bacteria strain was inoculated into a serum plate medium and cultured at 37° C. for 16-18 hours. An appropriate amount of bacteria after the completion of subculture and saline were placed into a turbidimetric tube and calibrated to the McFarland standard with a McFarland turbidimeter. The bacterial suspension was diluted 10 times with saline to prepare test bacterial solutions of certain concentrations (5×10^5 to 5×10^6 cfu/mL) for later use. Tylosin and the compounds obtained in the examples were dissolved in methanol to the desired concentration of each compound (1.0 mg/mL), stored in sterilized brown vials, stoppered, and sealed for later use. The working concentration range against Gram-negative bacteria was 0.25 μg/mL to 128 μg/mL; and the working concentration range against Gram-positive bacteria was […] to 50 μg/mL. The 96-well plate micro double dilution method was used. […] Finally, the prepared bacterial solution (of a concentration of 5×10^5 to 5×10^6 cfu/mL) was added into the first well to the eleventh well, and the twelfth well was not added with the bacterial solution to serve as a blank control. The 96-well plate was placed in a 37° C. incubator, cultured in a static state for 24 hours to observe the bacterial growth in each well. The solution in the well that inhibited bacterial growth was transparent, and the solution in the well that could not inhibit bacterial growth was turbid. The concentration corresponding to the well with a transparent solution was selected to be the minimum inhibitory concentration (MIC) of the sample.

[2] = tested on: Streptococcus agalactiae CVCC3940; experiment: MIC by broth microdilution, Streptococcus agalactiae
Experimental: (§2) The antibacterial activity of the tylosin derivative Ia and the antibacterial activity of the tylosin derivative Ib of the present invention were determined by using the broth microdilution method with tylosin as a positive control. A broth culture medium was added into a 96-well plate, a prepared compound solution was diluted in a trace two-fold decreasing concentration, and then was inoculated with an appropriate amount of bacterial solution. After incubation for 24 hours, the minimum inhibitory concentration of the compound was observed. The culture medium used in the experiment was CAMHB broth and CAMHB+5% defibrillated sheep blood broth. The preserved bacteria strain was inoculated into a serum plate medium and cultured at 37° C. for 16-18 hours. An appropriate amount of bacteria after the completion of subculture and saline were placed into a turbidimetric tube and calibrated to the McFarland standard with a McFarland turbidimeter. The bacterial suspension was diluted 10 times with saline to prepare test bacterial solutions of certain concentrations (5×10^5 to 5×10^6 cfu/mL) for later use. Tylosin and the compounds obtained in the examples were dissolved in methanol to the desired concentration of each compound (1.0 mg/mL), stored in sterilized brown vials, stoppered, and sealed for later use. […]

[3] = tested on: Staphylococcus aureus ATCC 29737; experiment: MIC by broth microdilution, Staphylococcus aureus
Experimental: as §2

[4] = tested on: Escherichia coli ATCC 8099; experiment: MIC by broth microdilution, Escherichia coli; details: for MIC: Escherichia coli, ATCC8099, final compound (after hydrolysis), 96-well two-fold dilution, 37° C., 24 hours; for antibacterial effect on Escherichia coli before versus after hydrolysis: before vs after hydrolysis
Experimental: as §1

| MIC [1] | MIC ([2]; Streptococcus agalactiae, CVCC3940, after hydrolysis, 96-well two-fold dilution, 37° C., 24 hours) | MIC ([3]; Staphylococcus aureus, ATCC29737, after hydrolysis, 96-well two-fold dilution, 37° C., 24 hours) | MIC [4] | Compound | antibacterial effect on Streptococcus pneumoniae before versus after hydrolysis [1] | in vitro antibacterial activity against Streptococcus pneumoniae compared with tylosin [1] | antibacterial activity against Streptococcus agalactiae before versus after hydrolysis ([2]; before vs after hydrolysis) | antibacterial activity against Staphylococcus aureus before versus after hydrolysis ([3]; before vs after hydrolysis) | antibacterial effect on Escherichia coli before versus after hydrolysis [4] | in vitro antibacterial activity against Escherichia coli compared with tylosin ([4]; compared with tylosin) |
| --- | --- | --- | --- | --- | --- | --- | --- | --- | --- | --- |
| 0.391 mg/L (≈ 0.47 µM) | 1.56 mg/L (≈ 1.88 µM) | 0.781 mg/L (≈ 0.94 µM) | 128 mg/L (≈ 154 µM) | CC[C@H]1OC(=O)C[C@@H](O)[C@H](C)[C@@H](O[C@@H]2O[C@H](C)[C@@H](O)[C@H](N(C)C)[C@H]2O)[C@@H](CCNCCCO)C[C@@H](C)C(=O)/C=C/C(C)=C/[C@@H]1CO[C@@H]1O[C@H](C)[C@@H](O)[C@@H](OC)[C@H]1OC [Ia, 20-(3-hydroxypropylamino)desmycosin] | comparable | higher in vitro antibacterial activity | stronger before the hydrolysis | stronger after the hydrolysis | comparable | – |
| 0.098 mg/L (≈ 0.114 µM) | – | – | 64 mg/L (≈ 74.7 µM) | CC[C@H]1OC(=O)C[C@@H](O)[C@H](C)[C@@H](O[C@@H]2O[C@H](C)[C@@H](O)[C@H](N(C)C)[C@H]2O)[C@@H](CCN2CCC[C@@H]2CO)C[C@@H](C)C(=O)/C=C/C(C)=C/[C@@H]1CO[C@@H]1O[C@H](C)[C@@H](O)[C@@H](OC)[C@H]1OC [Ib, 20-((R)-2-hydroxymethyltetrahydropyrrolyl)desmycosin] | doubled after the hydrolysis | higher in vitro antibacterial activity | – | – | comparable | higher in vitro antibacterial activity |
| 0.781 mg/L (≈ 0.853 µM) | – | – | 128 mg/L (≈ 140 µM) | CC[C@H]1OC(=O)C[C@@H](O)[C@H](C)[C@@H](O[C@@H]2O[C@H](C)[C@@H](O[C@H]3C[C@@](C)(O)[C@@H](O)[C@H](C)O3)[C@H](N(C)C)[C@H]2O)[C@@H](CC=O)C[C@@H](C)C(=O)/C=C/C(C)=C/[C@@H]1CO[C@@H]1O[C@H](C)[C@@H](O)[C@@H](OC)[C@H]1OC [Tylosin] | – | – | – | – | – | – |
